# According to the Kinase Knowledgebase extract (Sharma et al. 2016):
# What was measured:
# [1] = target: MAPK14 (human) (UniProt Q16539); assay: Inhibition of LPS Stimulated TNF Production by U937 Cells; conditions: for inhibition: concentration not given here
# [2] = target: MAPK14 (human) (UniProt Q16539); assay: Inhibition of MAPK14 Kinase Activity by EGFRP Assay
# [3] = target: MAPK14 (human) (UniProt Q16539); assay: Inhibition of MAPK14 Kinase Activity by PHAS-I Assay; conditions: concentration not given here
# Chain of MAPK14 (human) (Q16539 whole entry, looked up): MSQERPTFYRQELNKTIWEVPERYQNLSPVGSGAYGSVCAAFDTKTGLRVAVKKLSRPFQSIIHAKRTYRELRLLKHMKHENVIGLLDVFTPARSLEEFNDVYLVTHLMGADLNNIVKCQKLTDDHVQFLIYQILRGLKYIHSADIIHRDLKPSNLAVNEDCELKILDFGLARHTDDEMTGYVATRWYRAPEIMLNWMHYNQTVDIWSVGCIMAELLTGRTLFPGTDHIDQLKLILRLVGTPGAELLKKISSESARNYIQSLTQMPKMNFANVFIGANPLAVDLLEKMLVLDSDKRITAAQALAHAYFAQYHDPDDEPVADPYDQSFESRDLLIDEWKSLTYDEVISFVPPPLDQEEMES
Compound,IC50 [1],IC50 [2],inhibition [3],inhibition [1]
Cc1cccc(-c2c(-c3ccnc(C)c3)cnn2C)c1,,104 nM,,
Cc1cc(-c2cn(C)nc2-c2cccc(Cl)c2)ccn1.Cc1cc(-c2cnn(C)c2-c2cccc(Cl)c2)ccn1,,44 nM,,
Cn1cc(-c2ccncc2)c(-c2cccc(Cl)c2)n1.Cn1ncc(-c2ccncc2)c1-c1cccc(Cl)c1,,103 nM,,
Cc1c(-c2ccncc2)c(-c2ccc(F)cc2)nn1CC(=O)Nc1ccc(CCC(=O)c2cccnc2)cc1,,,94%,15%

# Results, then the molecule that gave them:
IC50 [1],IC50 [2],inhibition [3],inhibition [1],Compound
7.4 nM,< 10 nM,,,Fc1ccc(-c2n[nH]cc2-c2ccnc(NCCn3ccnc3)c2)cc1
,,87%,53%,O=S(=O)(NCCc1[nH]nc(-c2ccc(F)cc2)c1-c1ccncc1)c1cccs1
,,80%,61%,O=C(NCCCc1[nH]nc(-c2ccc(F)cc2)c1-c1ccncc1)Nc1cccc(F)c1
,,67%,36%,O=C(NCCc1[nH]nc(-c2ccc(F)cc2)c1-c1ccncc1)NC(=O)c1ccccc1
